The subject of this data set is HCT116 cells. Kind of data set: Cell cycle analysis (flow cytometry), HCT116. In kind it is cell-based, human. The settings on record: 36 h after transfection. The procedure:
HCT116, RKO and SW480 cells were plated in 6-well plates at 2×10^5, 1×10^5 and 1×10^5 per well, respectively. Twenty-four hours after plating, 100 nM of miR-129 precursor (Ambion, Carlsbad, Calif., USA) or siRNA against BCL2 (Dharmacon, Lafayette, Colo., USA) were transfected to the cells with oligofectamine (Invitrogen, Carlsbad, Calif., USA) in accordance with the manufacturer's protocol. Negative miRNA (Ambion) was also transfected as a negative control.
Thirty-six hours after transfection, cells were harvested and resuspended at 0.5 to 1×10^6 cells/m in modified Krishan buffer supplemented with 0.02 mg/ml RNase H (Invitrogen) and 0.05 mg/ml propidium iodide (Sigma-Aldrich, St. Louis, Mo., USA) (See, Krishan A. The Journal of Cell Biology. 1975; 66(1):188-93). Stained cells were detected by flow cytometry and results were analyzed with Modfit LT™ software. The experiments for cell cycle analysis were performed at least three times.

Take “miR-129: nucleic acid having a sequence of CUUUUUGCGGUCUGGGCUUGC (SEQ ID NO. 1); miR-129 precursor from Ambion used (chemistry not given here; listed as Homo sapiens)”: the “cell cycle arrest (G1/S and G2/S ratios)” value is on record as “reached significance at G2 checkpoint”.

Values taken from US10697020B2, “MicroRNA-129 as a biomarker for colorectal cancer” (THE RESEARCH FOUNDATION FOR THE STATE UNIVERSITY OF NEW YORK, priority 2013, dated 2020).
